According to patent publication US9056899B2 (priority 2008, dated 2015):
≈ marks a conversion by molar mass, not a printed value. Where two headings read alike, the source gives them in different places.

Key:
[1] = tested on: BW25113 and gene knockouts; settings: cited from earlier work
[2] = tested on: BW25113 and gene knockouts; settings: cited from earlier work; remark: listed apart in the source
E. coli EMG2 [3] = assay: Ofloxacin killing assay; assay type: cell-based; settings: 60 ng/mL ofloxacin, no phage, 6 hours of treatment
Protocol: Determination of colony forming units. To obtain CFU counts, 150 μL of relevant cultures were collected, washed with 1× phosphate-buffered saline (PBS), recollected, and resuspended in 150 μL of 1×PBS. Serial dilutions were performed with 1×PBS and sampled on LB agar plates. LB agar plates were incubated at 37° C. overnight before counting.
Ofloxacin killing assay. To determine the adjuvant effect of engineered phage (FIG. 1B, FIG. 3A and FIG. 3D), the inventors grew 1:500 dilutions of overnight EMG2 cells for 3 hours and 30 minutes at 37° C. and 300 rpm to late-exponential phase and determined initial CFUs. Then, the inventors added 60 ng/mL ofloxacin by itself or in combination with 10^8 PFU/mL bacteriophage (unmodified φunmod or engineered φLexA, φSoxR, φcsr, φompF, or φCsr-ompF phage) and treated at 37° C. and 300 rpm. At indicated time points, the inventors determined CFUs as described above. Mean killing (Δlog10 (CFU/mL)) was determined by subtracting mean initial log10 (CFU/mL) from mean log10 (CFU/mL) after treatment in order to compare data from different experiments. This protocol was replicated with E. coli RFS289 to determine the ofloxacin-enhancing effect of engineered φlexA3 phage against antibiotic-resistant bacteria (FIG. 2). […]

E. coli EMG2 [4] = assay: Minimum inhibitory concentration of ofloxacin; assay type: cell-based; settings: Escherichia coli, data not shown
E. coli EMG2 [5] = assay: Antibiotic resistance assay; assay type: cell-based; settings: 30 ng/mL ofloxacin 24 hours; phage (10^9 PFU/mL) added for the last 12 hours where named
Protocol: Antibiotic resistance assay. To analyze the effect of subinhibitory concentrations of ofloxacin on the development of antibiotic-resistant mutants, the inventors grew 1:10^8 dilutions of overnight EMG2 in LB media containing either no ofloxacin (FIG. 4) or 30 ng/mL ofloxacin (FIG. 7). After 12 hours of growth at 37° C. and 300 rpm, the inventors split the cells grown in no ofloxacin into 100 uL aliquots with no ofloxacin in 60 wells in 96-well plate format (Costar 3370; Fisher Scientific, Pittsburgh, Pa.). The inventors also split the cells grown in 30 ng/mL ofloxacin into 100 uL aliquots in 60 wells with either no phage and 30 ng/mL ofloxacin (FIG. 7B), φunmod phage and 30 ng/mL ofloxacin (FIG. 7C), and φlexA3 and 30 ng/mL ofloxacin (FIG. 7D) in 96-well plate format. The inventors placed the 96-well plates in 37° C. and 300 rpm with plastic bags to minimize evaporation. After 12 hours of treatment, the inventors plated cultures from each well on LB agar+100 ng/mL ofloxacin to select for mutants that developed resistance against ofloxacin. To compare results, the inventors plotted histograms of the number of resistant bacteria found in each well in FIGS. 4 and 8.

E. coli EMG2 [6] = assay: Survival of mice infected with bacteria; assay type: in vivo; settings: 8.8×10^7 CFU/mouse i.p.; 1 hour later i.v. 0.2 mg/kg ofloxacin with or without 10^9 PFU/mouse phage; observed 5 days
Protocol: After 1 hour, the mice received either no treatment or intravenous treatment with no phage, unmodified phage φunmod, or engineered phage φlexA3 with 0.2 mg/kg ofloxacin. 10^9 PFU/mouse phage was used.
Increasing Survival of Mice Infected with Bacteria. To determine the clinical relevance of antibiotic-enhancing phage in vivo, the inventors applied the engineered phage φlexA3 with ofloxacin to prevent death in mice infected with bacteria. Mice were injected with E. coli EMG2 intraperitoneally 1 hour prior to receiving different intravenous treatments (FIG. 3A). Eighty percent of mice that received φlexA3 with ofloxacin survived, compared with 50% and 20% for mice that received φunmod plus ofloxacin or ofloxacin alone, respectively (FIG. 3B).

BW25113 gene knockouts = settings: cited from earlier work
[7] = tested on: BW25113 and gene knockouts; settings: cited from earlier work; remark: listed apart in the source

For CC1(C)S[C@@H]2[C@H](NC(=O)[C@H](N)c3ccccc3)C(=O)N2[C@H]1C(=O)O [Ampicillin], the “MIC Plating” value ([1]; BW25113 starting strain) is given as 6.0 µg/mL (≈ 17.2 µM), the “MIC Plating” value ([1]; JW5115 knockout) is given as 2.0 µg/mL (≈ 5.72 µM) and the “MIC Plating” value ([1]; acrA knockout) is given as 1.5 µg/mL (≈ 4.29 µM). For the same molecule, the “MIC Plating” value ([1]; acrB knockout) was 2.0 µg/mL (≈ 5.72 µM), the “MIC Plating” value ([1]; atpA knockout) was 2.5 µg/mL (≈ 7.15 µM) and the “MIC Plating” value [1] was 1.5 µg/mL (≈ 4.29 µM). For the same molecule, the “MIC Plating” value ([1]; dacA knockout) was 1.5 µg/mL (≈ 4.29 µM), the “MIC Plating” value ([1]; dapF knockout) was 1.0 µg/mL (≈ 2.86 µM) and the “MIC Plating” value ([1]; dcd knockout) was 2.5 µg/mL (≈ 7.15 µM). For the same molecule, the “MIC Plating” value ([1]; ddlB knockout) was 1.0 µg/mL (≈ 2.86 µM), the “MIC Plating” value ([1]; dedD knockout) was 2.0 µg/mL (≈ 5.72 µM) and the “MIC Plating” value ([1]; deoT knockout) was 2.0 µg/mL (≈ 5.72 µM). The “MIC Plating” value ([1]; dksA knockout) was 2.0 µg/mL (≈ 5.72 µM), the “MIC Plating” value ([1]; emtA knockout) was 2.0 µg/mL (≈ 5.72 µM) and the “MIC Plating” value ([1]; envC knockout) was 1.5 µg/mL (≈ 4.29 µM). For the same molecule, the “MIC Plating” value ([1]; fkpB knockout) was 2.5 µg/mL (≈ 7.15 µM), the “MIC Plating” value ([1]; gpmM knockout) was 1.5 µg/mL (≈ 4.29 µM) and the “MIC Plating” value ([1]; hscA knockout) was 2.0 µg/mL (≈ 5.72 µM). The “MIC Plating” value ([1]; hscB knockout) was 2.5 µg/mL (≈ 7.15 µM), the “MIC Plating” value ([1]; lptB knockout) was 2.0 µg/mL (≈ 5.72 µM) and the “MIC Plating” value ([1]; mrcB knockout) was 2.0 µg/mL (≈ 5.72 µM). The “MIC Plating” value ([1]; pal knockout) was 1.5 µg/mL (≈ 4.29 µM), the “MIC Plating” value ([1]; pgmB knockout) was 1.5 µg/mL (≈ 4.29 µM) and the “MIC Plating” value ([1]; phoP knockout) was 2.0 µg/mL (≈ 5.72 µM). The “MIC Plating” value ([1]; qmcA knockout) was 2.5 µg/mL (≈ 7.15 µM), the “MIC Plating” value ([1]; rimK knockout) was 2.0 µg/mL (≈ 5.72 µM) and the “MIC Plating” value ([1]; rplA knockout) was 2.0 µg/mL (≈ 5.72 µM). For the same molecule, the “MIC Plating” value ([1]; rpmF knockout) was 1.5 µg/mL (≈ 4.29 µM), the “MIC Plating” value ([1]; rpsF knockout) was 2.0 µg/mL (≈ 5.72 µM) and the “MIC Plating” value ([1]; rrmJ knockout) was 1.5 µg/mL (≈ 4.29 µM). For the same molecule, the “MIC Plating” value ([1]; skp knockout) was 2.0 µg/mL (≈ 5.72 µM), the “MIC Plating” value ([1]; sufI knockout) was 2.0 µg/mL (≈ 5.72 µM) and the “MIC Plating” value ([1]; surA knockout) was 2.0 µg/mL (≈ 5.72 µM). The “MIC Plating” value ([1]; tatC knockout) was 2.0 µg/mL (≈ 5.72 µM), the “MIC Plating” value ([1]; tolC knockout) was 2.0 µg/mL (≈ 5.72 µM) and the “MIC Plating” value ([1]; tolR knockout) was 2.0 µg/mL (≈ 5.72 µM). The “MIC Plating” value ([1]; ubiG knockout) was 2.0 µg/mL (≈ 5.72 µM), the “MIC Plating” value ([1]; xapR knockout) was 1.5 µg/mL (≈ 4.29 µM) and the “MIC Plating” value ([1]; ybeD knockout) was 2.0 µg/mL (≈ 5.72 µM). For the same molecule, the “MIC Plating” value ([1]; ybeY knockout) was 2.0 µg/mL (≈ 5.72 µM), the “MIC Plating” value ([1]; ybgF knockout) was 1.5 µg/mL (≈ 4.29 µM) and the “MIC Plating” value ([1]; ybhT knockout) was 2.0 µg/mL (≈ 5.72 µM). For the same molecule, the “MIC Plating” value ([1]; yciM knockout) was 1.5 µg/mL (≈ 4.29 µM), the “MIC Plating” value ([1]; yfgC knockout) was 1.5 µg/mL (≈ 4.29 µM) and the “MIC Plating” value ([1]; yfgL knockout) was 2.0 µg/mL (≈ 5.72 µM). The “MIC Plating” value ([1]; ygcO knockout) was 2.0 µg/mL (≈ 5.72 µM), the “MIC Plating” value ([1]; yjjY knockout) was 1.5 µg/mL (≈ 4.29 µM) and the “MIC E test” value ([2]; BW25113 starting strain) was 5.0 µg/mL (≈ 14.3 µM). For the same molecule, the “MIC E test” value [2] was 1.5 µg/mL (≈ 4.29 µM), the “MIC E test” value ([2]; dacA knockout) was 1.5 µg/mL (≈ 4.29 µM) and the “MIC E test” value ([2]; dapF knockout) was 2.0 µg/mL (≈ 5.72 µM). For the same molecule, the “MIC E test” value ([2]; pal knockout) was 2.0 µg/mL (≈ 5.72 µM), the “MIC E test” value ([2]; rplA knockout) was 2.0 µg/mL (≈ 5.72 µM) and the “MIC E test” value ([2]; tatC knockout) was 3.0 µg/mL (≈ 8.59 µM). The “MIC E test” value ([2]; tolC knockout) was 1.0 µg/mL (≈ 2.86 µM).

For CC1COc2c(N3CCN(C)CC3)c(F)cc3c(=O)c(C(=O)O)cn1c23 (centres unmarked) [ofloxacin], the “reduction of bacteria exposed only to ofloxacin” value (E. coli EMG2 [3]) was “about 1.7 log10 (CFU/mL)”, the MIC (E. coli EMG2 [4]) was 0.06 µg/mL (≈ 0.166 µM) and the “number of mutants resistant to 100 ng/mL ofloxacin (median of 60 samples)” value (E. coli EMG2 [5]) was 1592. It also gave a mice that survived (E. coli EMG2 [6]) of 20%.

In the case of CN[C@H](CC(C)C)C(=O)N[C@H]1C(=O)N[C@@H](CC(N)=O)C(=O)N[C@H]2C(=O)N[C@H]3C(=O)N[C@H](C(=O)N[C@H](C(=O)O)c4cc(O)cc(O)c4-c4cc3ccc4O)[C@H](O)c3ccc(c(Cl)c3)Oc3cc2cc(c3O[C@@H]2O[C@H](CO)[C@@H](O)[C@H](O)[C@H]2O[C@H]2C[C@](C)(N)[C@H](O)[C@H](C)O2)Oc2ccc(cc2Cl)[C@H]1O [Vancomycin], the “MIC E test” value (BW25113 gene knockouts; lptB knockout) is listed as 2.0 µg/mL (≈ 1.38 µM), the “MIC E test” value (BW25113 gene knockouts; pal knockout) is listed as 96 µg/mL (≈ 66.2 µM) and the “MIC E test” value (BW25113 gene knockouts; smpA knockout) is listed as 70 µg/mL (≈ 48.3 µM). The “MIC E test” value (BW25113 gene knockouts; surA knockout) was 4 µg/mL (≈ 2.76 µM), the “MIC Plating” value ([7]; BW25113 starting strain) was 500 µg/mL (≈ 345 µM) and the “MIC Plating” value ([7]; dksA knockout) was 125 µg/mL (≈ 86.3 µM). For the same molecule, the “MIC Plating” value ([7]; elaD knockout) was 150 µg/mL (≈ 104 µM), the “MIC Plating” value ([7]; envC knockout) was 150 µg/mL (≈ 104 µM) and the “MIC Plating” value ([7]; envZ knockout) was 150 µg/mL (≈ 104 µM). For the same molecule, the “MIC Plating” value ([7]; fepC knockout) was 150 µg/mL (≈ 104 µM), the “MIC Plating” value ([7]; hns knockout) was 150 µg/mL (≈ 104 µM) and the “MIC Plating” value ([7]; hscB knockout) was 150 µg/mL (≈ 104 µM). The “MIC Plating” value ([7]; lptB knockout) was 150 µg/mL (≈ 104 µM), the “MIC Plating” value ([7]; msbB knockout) was 150 µg/mL (≈ 104 µM) and the “MIC Plating” value ([7]; oxyR knockout) was 150 µg/mL (≈ 104 µM). The “MIC Plating” value ([7]; pal knockout) was 100 µg/mL (≈ 69 µM), the “MIC Plating” value ([7]; pgmB knockout) was 100 µg/mL (≈ 69 µM) and the “MIC Plating” value ([7]; proW knockout) was 150 µg/mL (≈ 104 µM). The “MIC Plating” value ([7]; rimK knockout) was 150 µg/mL (≈ 104 µM), the “MIC Plating” value ([7]; rpmJ knockout) was 150 µg/mL (≈ 104 µM) and the “MIC Plating” value ([7]; rrmJ knockout) was 150 µg/mL (≈ 104 µM). The “MIC Plating” value ([7]; skp knockout) was 75 µg/mL (≈ 51.8 µM), the “MIC Plating” value ([7]; smpA knockout) was 100 µg/mL (≈ 69 µM) and the “MIC Plating” value ([7]; surA knockout) was 8 µg/mL (≈ 5.52 µM). For the same molecule, the “MIC Plating” value ([7]; tonB knockout) was 125 µg/mL (≈ 86.3 µM), the “MIC Plating” value ([7]; tusC knockout) was 150 µg/mL (≈ 104 µM) and the “MIC Plating” value ([7]; tusD knockout) was 150 µg/mL (≈ 104 µM). The “MIC Plating” value ([7]; xapR knockout) was 100 µg/mL (≈ 69 µM), the “MIC Plating” value ([7]; ybgF knockout) was 100 µg/mL (≈ 69 µM) and the “MIC Plating” value ([7]; ycbR knockout) was 150 µg/mL (≈ 104 µM). The “MIC Plating” value ([7]; yciM knockout) was 100 µg/mL (≈ 69 µM), the “MIC Plating” value ([7]; ydfP knockout) was 150 µg/mL (≈ 104 µM) and the “MIC Plating” value ([7]; ydjI knockout) was 100 µg/mL (≈ 69 µM). For the same molecule, the “MIC Plating” value ([7]; yfgC knockout) was 150 µg/mL (≈ 104 µM), the “MIC Plating” value ([7]; yfgL knockout) was 150 µg/mL (≈ 104 µM) and the “MIC Plating” value ([7]; yhdP knockout) was 125 µg/mL (≈ 86.3 µM).
